The source of these data is patent US8232308B2, “Methods for treating a disease in which Rho kinase is involved” (UBE Industries, Ltd., priority 2003, dated 2012).

What is called Ki is the equilibrium dissociation constant of an inhibitor or competing ligand from its target. A lower Ki goes with tighter binding.

Counter-ions that a name gives are not always drawn.

T1 sequence (Q62868 11-550 limits assumed): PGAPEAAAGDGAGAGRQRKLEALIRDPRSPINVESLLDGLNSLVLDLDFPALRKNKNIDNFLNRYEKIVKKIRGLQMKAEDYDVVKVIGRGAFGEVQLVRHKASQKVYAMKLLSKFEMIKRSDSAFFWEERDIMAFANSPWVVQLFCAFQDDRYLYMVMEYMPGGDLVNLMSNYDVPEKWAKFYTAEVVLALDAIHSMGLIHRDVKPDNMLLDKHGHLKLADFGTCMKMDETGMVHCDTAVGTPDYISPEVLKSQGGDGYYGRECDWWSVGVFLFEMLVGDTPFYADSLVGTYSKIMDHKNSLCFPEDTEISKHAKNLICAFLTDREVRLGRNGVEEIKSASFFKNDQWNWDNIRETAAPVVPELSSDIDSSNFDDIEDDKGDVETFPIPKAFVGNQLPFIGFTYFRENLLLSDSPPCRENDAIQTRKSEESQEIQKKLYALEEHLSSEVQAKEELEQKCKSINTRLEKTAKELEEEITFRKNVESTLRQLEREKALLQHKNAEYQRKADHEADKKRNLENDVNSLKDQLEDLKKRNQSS

The assay concerns the target T1, activated ROCK II (Rattus norvegicus, UniProt Q62868).
T1 construct: purchased Upstate Biotechnology 14-338
Briefly: Test for Evaluation of Inhibiting Activity to Rho Kinase. The following applies: S6 Kinase Substrate Peptide, [γ-32P]ATP, 30° C. for 15 minutes, Ki=IC50/(1+S/Km). The format is biochemical. On the procedure:
In order to find the utility of the present invention compound, a Rho kinase inhibiting activity of the present invention compound was evaluated. The details thereof will be illustrated under the item of “Pharmacological Test (Test for Evaluation of Rho Kinase Inhibiting Activity)” in the Examples which will be mentioned later. The evaluation of the Rho kinase inhibiting activity of the present invention compound was carried out in accordance with the methods mentioned in J. Biol. Chem., 274, 32418 (1999) by Kaibuchi, et al. and mentioned in the instruction manual for use attached to the commercially available activated ROCK II [Upstate Biotechnology, Catalog No. 14-338 (5 units/50 μl)].
A. Test for Evaluation of Inhibiting Activity to Rho Kinase
In order to test the usefulness of the compounds of the present invention as a Rho kinase inhibitor, inhibiting activities of the compounds of the present invention to Rho kinase were evaluated and investigated in accordance with the methods of Kaibuchi, et al. mentioned in J. Biol. Chem., 274, 32418, 1999 and also with the methods mentioned in the instruction manual for use attached to commercially available activated ROCK II [Upstate Biotechnology, Catalog No. 14-338, (5 unite/50 μl)]. With regard to the test compounds, the compounds 5-1 to 5-73 (except the compounds 5-2, 5-9, 5-18, 5-37 and 5-38) were used.
A buffer was prepared so as to make tris(hydroxymethyl)aminomethane (Tris) (pH 7.5), 50 mM, ethyleneglycol bis(β-aminoethyl ether)-N,N,N′,N′-tetraacetic acid (EGTA), 2 mM, ethylenediaminetetraacetic acid (EDTA), 1 mM, magnesium chloride (MgCl2) 5 mM, β-glycerol phosphate, 5 mM, and dithiothreitol (DTT), 2 mM, by mixing them.
A mixed liquid of a 10 mM ATP solution with a commercially available [γ-^32P]ATP solution [NEN, Code No. NEG-002A] was diluted with the buffer to prepare a 300 μM ATP [γ-^32P]ATP solution.
A Commercially Available Activated ROCK II [Upstate Biotechnology, Catalog No. 14-338, (5 Units/50 μl)] was diluted to a concentration of 1/100 with the buffer to prepare an activated ROCK II solution.
A S6 Kinase Substrate Peptide [Upstate Biotechnology, Catalog No. 12-124,] (2 mg) was dissolved in distilled water to prepare a 1 mM substrate solution.
A test compound was dissolved in 10% aqueous dimethyl sulfoxide solution.
1) The test compound solution is placed in a microtube.
2) The 300 μM ATP [γ-^32P]ATP solution is added to the microtube followed by cooling to 4° C.
3) After that, a permanently activated ROCK II solution, 1 mM substrate solution and buffer are added to each microtube in that order, and the whole is mixed and cooled again at 4° C.
4) The microtube is placed in an incubator (30° C.) and the mixture is subjected to reaction for 15 minutes.
5) After cooling to 4° C., a 250 mM phosphoric acid solution (5 μl) is added to each microtube to stop the reaction.
6) The reaction solution (30 μl) is taken out from each microtube and spotted on a filter paper (Whatman P81) so that the reaction product (phosphorylated substrate) is adsorbed to the filter paper.
7) The filter paper is transferred to a beaker in which a 75 mM phosphoric acid solution is placed and shaken for 5 minutes so that unreacted [γ-^32P]AfP is washed out. The washing operation as such is carried out four times.
8) After that, the filter paper is dipped in ethanol to dehydrate and energy amount (radioactivity) of the reaction product adsorbed to the filter paper is measured with a liquid scintillation counter.
The IC50 value was calculated by an XL-fit (IDBS).
The Ki value is calculated by the following formula. S is an ATP concentration contained in the reaction solution while Km is a Michaelis-Menten constant. Ki=IC50/(1+S/Km)
Take `CC(C)(N)c1ccc(-c2ccc3[nH]ncc3c2N2CCCC2)cc1` [Compound 5-42, 5-[4-(1-Amino-1-methylethyl)phenyl]-4-(pyrrolidin-1-yl)-1H-indazole trihydrochloride]: the Ki was 14 nM.

Regarding `CC(O)c1c(-c2ccc(C(C)(C)N)cc2)ccc2[nH]ncc12` (stereo not drawn) [Compound 5-34, 5-[4-(1-Amino-1-methylethyl)phenyl]-4-(1-hydroxy-ethyl)-1H-indazole dihydrochloride], the Ki turned out to be 294 nM.

The molecule `CC(C)(N)c1ccc(-c2ccc3[nH]ncc3c2-c2cc[nH]n2)cc1` [Compound 5-67, 5-[4-(1-Amino-1-methylethyl)phenyl]-4-(pyrazol-3-yl)-1H-indazole trihydrochloride] came in with a Ki of 11 nM.

As for `CC(C)(N)c1cnc(-c2ccc3[nH]ncc3c2)c(Cl)c1` [Compound 5-27, 5-[5-(1-Amino-1-methylethyl)-3-chloropyridin-2-yl]-1H-indazole trihydrochloride], the affinity, expressed as Ki, was 86 nM.

The molecule `CC(C)(N)c1ccc(-c2ccc3[nH]ncc3c2OC2CC2)nc1` [Compound 5-70, 5-[5-(1-Amino-1-methylethyl)pyridin-2-yl]-4-cyclo-propyloxy-1H-indazole trihydrochloride] displayed a Ki of 28 nM.

Molecule `CC(C)Oc1c(-c2ccc(C(C)(C)N)cn2)ccc2[nH]ncc12` [Compound 5-50, 5-[5-(1-Amino-1-methylethyl)pyridin-2-yl]-4-isopropoxy-1H-indazole trihydrochloride] yielded a Ki of 84 nM.

On to `CC(C)(N)c1ccc(-c2ccc3[nH]ncc3c2-c2ccno2)cc1` [Compound 5-68, 5-[4-(1-Amino-1-methylethyl)phenyl]-4-(isoxazol-5-yl)-1H-indazole dihydrochloride], for which the Ki is 6.4 nM.

Molecule `C=Cc1c(-c2ccc(C(C)(C)N)cn2)ccc2[nH]ncc12` [Compound 5-30, 5-[5-(1-Amino-1-methylethyl)pyridin-2-yl]-4-vinyl-1H-indazole trihydrochloride] gave an inhibition constant (Ki) of 17 nM.

Turning to `CN(C)c1c(-c2ccc(CN)cc2)ccc2[nH]ncc12` [Compound 5-23, 5-[4-(Aminomethyl)phenyl]-4-dimethylamino-1H-indazole trihydrochloride], the inhibition constant Ki is 29 nM.

In turn, `CC(C)(N)c1ccc(-c2ccc3[nH]ncc3c2NCc2ccccc2)cc1` [Compound 5-6, 5-[4-(1-Amino-1-methylethyl)phenyl]-4-benzylamino-1H-indazole dihydrochloride] registered an inhibition constant Ki of 260 nM.

The molecule `CC(C)(N)c1ccc(-c2ccc3[nH]ncc3c2CCO)nc1` [Compound 5-33, 5-[5-(1-Amino-1-methylethyl)pyridin-2-yl]-4-(2-hydroxyethyl)-1H-indazole trihydrochloride] registered a Ki of 234 nM.

In turn, `CC(C)(N)c1ccc(-c2ccc3[nH]ncc3c2OCCF)cc1` [Compound 5-56, 5-[4-(1-Amino-1-methylethyl)phenyl]-4-(2-fluoro-ethoxy)-1H-indazole dihydrochloride] yielded a Ki of 26 nM.

`CC(C)(N)c1ccc(-c2ccc3[nH]ncc3c2N2CCCCC2)cc1` [Compound 5-41, 5-[4-(1-Amino-1-methylethyl)phenyl]-4-(piperidin-1-yl)-1H-indazole trihydrochloride] returned an inhibitory constant (Ki) of 14 nM.

`CC(C)(N)c1ccc(-c2ccc3[nH]ncc3c2-c2cccnc2)cc1` [Compound 5-62, 5-[4-(1-Amino-1-methylethyl)phenyl]-4-(pyridin-3-yl)-1H-indazole trihydrochloride] came in with an inhibition constant Ki of 126 nM.

In the case of `CC(C)(N)c1ccc(-c2ccc3[nH]ncc3c2OC(F)F)nc1` [Compound 5-59, 5-[5-(1-Amino-1-methylethyl)pyridin-2-yl]-4-difluoromethoxy-1H-indazole trihydrochloride], the affinity, expressed as Ki, was 6.9 nM.

In turn, `CCC(N)(CC)c1ccc(-c2ccc3[nH]ncc3c2N(C)C)cc1` [Compound 5-25, 5-[4-(1-Amino-1-ethylpropyl)phenyl]-4-dimethylamino-1H-indazole trihydrochloride] had a Ki of 23 nM.

The molecule `CC(C)(N)c1ccc(-c2ccc3[nH]ncc3c2N2CCOCC2)cc1` [Compound 5-43, 5-[4-(1-Amino-1-methylethyl)phenyl]-4-(morpholin-4-yl)-1H-indazole trihydrochloride] came in with a Ki of 211 nM.

`CC(C)(N)c1ccc(-c2ccc3[nH]ncc3c2OCC(F)(F)F)cc1` [Compound 5-54, 5-[4-(1-Amino-1-methylethyl)phenyl]-4-(2,2,2-tri-fluoroethoxy)-1H-indazole dihydrochloride] showed a Ki of 31 nM.

`CC(C)(N)c1ccc(-c2ccc3[nH]ncc3c2-c2ccccn2)cc1` [Compound 5-63, 5-[4-(1-Amino-1-methylethyl)phenyl]-4-(pyridin-2-yl)-1H-indazole trihydrochloride] had an inhibitory constant (Ki) of 241 nM.

With `CC(C)(N)c1ccc(-c2ccc3[nH]ncc3c2N)cc1` [Compound 5-5, 4-Amino-5-[4-(1-amino-1-methylethyl)phenyl]-1H-indazole trihydrochloride], the inhibition constant Ki was 44 nM.

For `CCC(N)(CC)c1ccc(-c2ccc3[nH]ncc3c2OC(F)F)cc1` [Compound 5-72, 5-[4-(1-Amino-1-ethylpropyl)phenyl]-4-difluoro-methoxy-1H-indazole dihydrochloride], affinity was put at a Ki of 13 nM.

On to `COc1c(-c2ccc(C(C)(C)N)cn2)ccc2[nH]ncc12` [Compound 5-45, 5-[5-(1-Amino-1-methylethyl)pyridin-2-yl]-4-methoxy-1H-indazole trihydrochloride], for which the affinity, expressed as Ki, was 27 nM.

Consider `NCc1ccc(-c2ccc3[nH]ncc3c2[N+](=O)[O-])cc1` [Compound 5-19, 5-[4-(Aminomethyl)phenyl]-4-nitro-1H-indazole dihydrochloride], for which affinity was put at a Ki of 55 nM.

The molecule `NCc1ccc(-c2ccc3[nH]ncc3c2N)cc1` [Compound 5-20, 4-Amino-5-[4-(aminomethyl)phenyl]-1H-indazole trihydrochloride] registered an inhibition constant Ki of 61 nM.

For the molecule `CCC(N)(CC)c1ccc(-c2ccc3[nH]ncc3c2OC2CC2)nc1` [Compound 5-71, 5-[5-(1-Amino-1-ethylpropyl)pyridin-2-yl]-4-cyclo-propyloxy-1H-indazole trihydrochloride], the affinity corresponds to a Ki of 34 nM.

`CCC(N)(CC)c1ccc(-c2ccc3[nH]ncc3c2N)cc1` [Compound 5-22, 4-Araino-5-[4-(1-amino-1-ethylpropyl)phenyl]-1H-indazole trihydrochloride] registered a Ki of 38 nM.

`CCOc1c(-c2ccc(C(C)(C)N)cc2)ccc2[nH]ncc12` [Compound 5-49, 5-[4-(1-Amino-1-methylethyl)phenyl]-4-ethoxy-1H-indazole dihydrochloride] came in with a Ki of 17 nM.

Take `CC(C)(N)c1ccc(-c2ccc3[nH]nc(C#N)c3c2)cc1` [Compound 5-13, 5-[4-(1-Amino-1-methylethyl)phenyl]-3-cyano-1H-indazole dihydrochloride]: the inhibition constant (Ki) came to 103 nM.

`CC(C)(N)c1ccc(-c2ccc3[nH]ncc3c2C2CC2)nc1` [Compound 5-29, 5-[5-(1-Amino-1-methylethyl)pyridin-2-yl]-4-cyclo-propyl-1H-indazole trihydrochloride]: the inhibition constant Ki is 2.7 nM.

`CC(N)c1ccc(-c2ccc3[nH]ncc3c2N(C)C)cc1` (stereo not drawn) [Compound 5-26, 5-[4-(1-Aminoethyl)phenyl]-4-dimethylamino-1H-indazole trihydrochloride] came in with a Ki of 27 nM.
